Experimental data reported in US20250332154A1, “USE OF NAPHTHOQUINE PHOSPHATE IN PREPARATION OF A MEDICAMENT FOR TREATING AUTOIMMUNE DISEASES” (SHANGHAI PHARMACEUTICALS INDUSTRY CO., LTD, priority 2022, published 2025).
Counter-ions that a name gives are not always drawn.

Tests used:
[1] = Non-specific cytotoxicity assay (MTT), RAW264.7; format: cell-based, mouse; conditions: mouse, RAW264.7 cells
Protocol: RAW264.7 cells were inoculated into a 96-well plate at 1×10^5/well and allowed to adhere to the wall for 6 hours in a 37° C., 5% CO2 incubator. […] A corresponding solvent control (cell control) and a culture medium background control (blank control) were set up. The cells were cultured in a 37° C., 5% CO2 incubator for 48 hours. Fifteen minutes before the end of the culture, 20 μl of 5 mg/ml MTT was added. At the end of the culture, the supernatant was aspirated and discarded, 200 μl DMSO was added to dissolve the crystals.

[2] = Cytotoxicity (CC50) on mouse whole spleen lymphocytes, Example 3; format: cell-based; conditions: BALB/c; mouse whole spleen lymphocytes (Tables 3 and 4)
Protocol: (§1) BALB/c mice were sacrificed by cervical dislocation, and spleens were aseptically excised to prepare whole spleen lymphocytes. The cells were adjusted to 5×10^6 cells/ml. Hydroxychloroquine sulfate was diluted with a 3-fold gradient into 3 concentrations starting from 30 μM: 30, 10 and 3 μM; naphthoquine phosphate was diluted with a 3-fold gradient into 3 concentrations starting from 10 μM: 10, 3 and 1 μM.

[3] = system: mouse whole spleen lymphocytes; assay: TLRs-L-stimulated proliferation of mouse whole spleen lymphocytes (3H-TdR); format: cell-based; conditions: for IC50: Mus musculus, Lymphocyte, 48 h
Protocol: as §1
A suspension of mouse spleen lymphocytes was inoculated into a 96-well plate at […], and the stimulant TLR4-L (final concentration: 10 μg/ml), TLR7-L (final concentration: 5 μg/ml) or TLR9-L (final concentration: 1 μM) and compounds diluted with the above concentration gradients were added. A corresponding stimulation control and a cell control (without stimulation) were set up. The cells were cultured in a 37° C., 5% CO2 incubator for 48 hours. Eight hours before the end of culture, ^3H-TdR was added, and the culture continued until the end of the experiment. The cells were collected onto glass fiber membranes using a cell collector. 5 ml scintillation fluid was added, and the values of radioactive counts per minute were read on a Beta counter (2450 Microplate Counter, PerkinElmer).

IgG = IgG secretion by TLRs-L-stimulated mouse whole spleen lymphocytes (ELISA); format: cell-based; conditions: Lymphocyte, 120 h
Protocol: as §1
(§2) Mouse spleen lymphocytes were inoculated into a 96-well plate at 100 μl/well, and the stimulant TLR4-L (final concentration: 10 μg/ml), TLR7-L (final concentration: 5 μg/ml) or TLR9-L (final concentration: 1 μM) and the compounds diluted with the above concentration gradients were added. A corresponding stimulation control and a cell control (without stimulation) were set up. The cells were cultured in a 37° C., 5% CO2 incubator for 120 hours. After the end of the culture, the cell culture supernatants were collected, and the levels of IgG and IgM were measured by ELISA.

IgM = IgM secretion by TLRs-L-stimulated mouse whole spleen lymphocytes (ELISA); format: cell-based; conditions: Lymphocyte, 120 h
Protocol: as §1, §2

IL-10 = IL-10 secretion by TLRs-L-stimulated mouse whole spleen lymphocytes (ELISA); format: cell-based; conditions: Lymphocyte, 48 h
Protocol: as §1
as §2, with “48” for “120”, “IL-1β, IL-6,” for “IgG”, “IL-10” for “IgM”

[4] = Non-specific cytotoxicity assay (MTT), purified mouse B cells; format: cell-based; conditions: BALB/c
Protocol: (§3) BALB/c mice were sacrificed by cervical dislocation, and spleens were aseptically excised to prepare spleen lymphocytes. The cells were adjusted to 1×10^8 cells/ml, blocked with 2.4G2 (final concentration: 10 μg/ml) for 20 min, cultured with PE-CD19 (final concentration: 5 μg/ml) for 20 min, washed with MACS buffer, centrifuged at 4° C., 300G for 10 min, 100 μl anti-PE beads were added per 1×10^8 cells, incubated with 900 μl MACS buffer for 15 min, washed with MACS buffer, centrifuged at 4° C., 300G for 10 min. The supernatant was discarded. 500 μl MACS buffer was added per 1×10^8 cells to resuspend the cells. MACS column was used for separation. Magnetically labeled cells were retained on the column. The MACS column was removed from the magnetic field and then eluted.
Hydroxychloroquine sulfate was diluted with a 2-fold gradient into 3 concentrations starting from 8 μM: 8, 4 and 2 μM. Naphthoquine phosphate was diluted with a 2-fold gradient into 3 concentrations starting from 0.5 μM: 0.5, 0.25, 0.125 μM. Purified mouse B cells were inoculated into a 96-well plate at 1×10^6/well, and gradient diluted compounds were added. A corresponding blank control and a cell control were set up. The cells were cultured in a 37° C., 5% CO2 incubator for 48 hours. […] The absorbance value was measured at 570 nm with a microplate reader (Spectra Max 190, Molecular Devices).

purified mouse B cells = assay: B cell proliferation assay, TLRs-L-stimulated purified mouse B cells (3H-TdR); format: cell-based; conditions: for IC50: Mus musculus, B-cell, 48 h, purified B cells, stimulant TLR4-L 10 μg/ml; for proliferation of purified mouse splenic B cells and production of inflammatory cytokines and antibodies induced by specific TLR signals: in words
Protocol: as §3
Hydroxychloroquine sulfate was diluted 2-fold into 3 concentrations starting from 8 μM: 8, 4 and 2 μM. Naphthoquine phosphate was diluted 2-fold into 3 concentrations starting from 0.5: 0.5, 0.25 and 0.125 μM. A suspension of purified mouse B cells was inoculated into a 96-well plate at 4×10^5/well, and the stimulant TLR4-L (final concentration: 10 μg/ml), TLR7-L (final concentration: 5 μg/ml) or TLR9-L (final concentration: 1 μM) and the gradient diluted compounds were added. A corresponding stimulation control and a cell control (without stimulation) were set up. The cells were cultured in 37° C., 5% CO2 incubator for 48 hours. Eight hours before the end of the culture, ^3H-TdR was added, and the culture was continued until the end of the experiment. The cells were collected onto glass fiber membranes using a cell collector. 5 ml scintillation fluid was added, and the values of radioactive counts per minute were read on a Beta counter (2450 Microplate Counter, PerkinElmer).

Row | SMILES | CC50 at 48 h [1] | CC50 [2] | IC50 ([3]; stimulant TLR4-L 10 μg/ml) | IC50 ([3]; stimulant TLR7-L 5 μg/ml) | IC50 ([3]; stimulant TLR9-L 1 μM) | IC50 (IgG; stimulant TLR4-L 10 μg/ml) | IC50 (IgG; stimulant TLR7-L 5 μg/ml) | IC50 (IgG; stimulant TLR9-L 1 μM) | IC50 (IgM; stimulant TLR4-L 10 μg/ml) | IC50 (IgM; stimulant TLR7-L 5 μg/ml) | IC50 (IgM; stimulant TLR9-L 1 μM) | IC50 (IL-10; stimulant TLR4-L 10 μg/ml) | IC50 (IL-10; stimulant TLR7-L 5 μg/ml) | IC50 (IL-10; stimulant TLR9-L 1 μM) | CC50 at 48 h [4] | IC50 (purified mouse B cells) | proliferation of purified mouse splenic B cells and production of inflammatory cytokines and antibodies induced by specific TLR signals (purified mouse B cells) | proliferation and cytokine and antibody secretion mediated by specific TLRs-L ([3]; mouse whole spleen lymphocytes, in words)
1 | CCN(CCO)CCCC(C)Nc1ccnc2cc(Cl)ccc12 (centres unmarked) [Hydroxychloroquine Sulfate, hydroxychloroquine sulfate] | 24.4 µM | 26.9 µM | 6.61 µM | 18.9 µM | 8.79 µM | 18.2 µM | 26.9 µM | 5.63 µM | 25.3 µM | 19.2 µM | 2.51 µM | 3.19 µM | 1.11 µM | 3.3 µM | 19.7 µM | 9.95 µM | inhibited | –
2 | CC(C)(C)NCc1cc(Nc2ccnc3cc(Cl)ccc23)c2c(c1O)CCCC2.O=P(O)(O)O.O=P(O)(O)O [Naphthoquine Phosphate, Naphthoquine phosphate] | 8.73 µM | 1.59 µM | 0.129 µM | 1.05 µM | 0.218 µM | – | – | 0.325 µM | 0.845 µM | – | 2.03 µM | 0.106 µM | 0.039 µM | 0.19 µM | 1.98 µM | 0.19 µM | inhibited | significantly inhibited
